According to ChEMBL document CHEMBL1201862, “PubChem BioAssay data set” (2004):
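1) Cells in 96-well plates. 2) Compound, 48 h, 5 concentrations. 3) Linear interpolation between surrounding doses. 4) Unreached endpoint = highest concentration. At the GI50, growth is halved.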 The source made the active and inactive calls. No stated cut-off is given here; in the data, active = GI50 up to about 1.1 µM and inactive = higher.

Experiments:
Assay in all cases: DTP human tumour cell line panel, 48 h
NCI-H460 = tested on: NCI-H460
SK-OV-3 = tested on: SK-OV-3
A549 = tested on: A549
EKVX = tested on: EKVX
MCF7 = tested on: MCF7
SF-539 = tested on: SF-539
SN12C = tested on: SN12C
RXF 393 = tested on: RXF 393
IGROV-1 = tested on: IGROV-1
CCRF-CEM = tested on: CCRF-CEM
ACHN = tested on: ACHN
T47D = tested on: T47D
PC-3 = tested on: PC-3
NCI-H226 = tested on: NCI-H226
RPMI-8226 = tested on: RPMI-8226
SW-620 = tested on: SW-620
COLO 205 = tested on: COLO 205
HOP-62 = tested on: HOP-62
Hs-578T = tested on: Hs-578T
HCC 2998 = tested on: HCC 2998

Measured: GI50

NC(=O)C1CCCN1Cc1ccc2c(c1)OCO2 (stereo not drawn)
inactive: NCI-H460 > 100 µM | SK-OV-3 > 100 µM | A549 > 100 µM | EKVX > 100 µM | MCF7 > 100 µM | SF-539 > 100 µM | SN12C > 100 µM | RXF 393 > 100 µM | IGROV-1 > 100 µM | CCRF-CEM > 100 µM | ACHN > 100 µM | T47D > 100 µM | PC-3 > 100 µM | NCI-H226 > 100 µM | RPMI-8226 > 100 µM | SW-620 > 100 µM | COLO 205 > 100 µM | HOP-62 > 100 µM | Hs-578T > 100 µM

CCCC(=O)Nc1cc([N+](=O)[O-])c([N+](=O)[O-])cc1OC
inactive: NCI-H460 13.3 µM | SK-OV-3 13.9 µM | A549 13.7 µM | EKVX 17.7 µM | MCF7 29.5 µM | SF-539 20 µM | SN12C 15.6 µM | IGROV-1 20.9 µM | CCRF-CEM 14.1 µM | ACHN 13.5 µM | T47D 3.8 µM | PC-3 27.2 µM | NCI-H226 23.1 µM | RPMI-8226 19.8 µM | SW-620 22.4 µM | COLO 205 15.5 µM | HOP-62 12.6 µM | Hs-578T 14.4 µM

Fc1c(F)c(C(F)(F)F)c(F)c(F)c1N/N=C/c1cn(Cc2ccccc2)c2ccccc12
inactive: NCI-H460 12.1 µM | SK-OV-3 12.2 µM | A549 27.9 µM | EKVX 18.4 µM | MCF7 23.1 µM | SF-539 20 µM | SN12C 29.2 µM | RXF 393 17.7 µM | IGROV-1 27.5 µM | CCRF-CEM 20.1 µM | ACHN 26.7 µM | T47D 23.6 µM | PC-3 27.4 µM | RPMI-8226 25.9 µM | SW-620 30.9 µM | COLO 205 13.5 µM | HOP-62 2.24 µM | Hs-578T 41.7 µM

Cc1ccc2c(c1)C(=O)c1[nH]c3ccc(F)cc3c1CO2
inactive: NCI-H460 33.9 µM | SK-OV-3 15.1 µM | A549 62.2 µM | HCC 2998 > 100 µM | EKVX 67.6 µM | MCF7 > 100 µM | SF-539 13.9 µM | SN12C > 100 µM | IGROV-1 30.3 µM | CCRF-CEM > 100 µM | ACHN 28.6 µM | T47D 21.3 µM | PC-3 84.9 µM | NCI-H226 31.8 µM | RPMI-8226 39.9 µM | SW-620 24.4 µM | COLO 205 > 100 µM | HOP-62 10.1 µM | Hs-578T 17.6 µM

O=C(O)c1ccccc1/C=N\N=C1NCCN1
inactive: NCI-H460 > 100 µM | SK-OV-3 > 100 µM | A549 > 100 µM | HCC 2998 > 100 µM | EKVX > 100 µM | MCF7 > 100 µM | SF-539 > 100 µM | SN12C > 100 µM | IGROV-1 > 100 µM | CCRF-CEM > 100 µM | ACHN > 100 µM | T47D > 100 µM | PC-3 > 100 µM | NCI-H226 21.6 µM | RPMI-8226 > 100 µM | SW-620 > 100 µM | COLO 205 > 100 µM | HOP-62 > 100 µM | Hs-578T > 100 µM

O=c1c2cc(S(=O)(=O)O)ccc2nc(COc2ccc(Oc3ccc(Cl)cc3Cl)cc2)n1C(=S)Nc1ccc(Cl)cc1
inactive: NCI-H460 17.9 µM | SK-OV-3 21.3 µM | A549 20.5 µM | EKVX 21.8 µM | MCF7 20 µM | SF-539 16.8 µM | SN12C 18.8 µM | RXF 393 15 µM | IGROV-1 28.3 µM | CCRF-CEM 34.7 µM | ACHN 23.6 µM | T47D 34.6 µM | PC-3 34.1 µM | NCI-H226 18.2 µM | RPMI-8226 26.9 µM | SW-620 20.9 µM | COLO 205 18 µM | HOP-62 20.5 µM | Hs-578T 20.6 µM

CC12CCC(CC1(Cl)Cl)C2 (stereo not drawn)
inactive: NCI-H460 > 100 µM | SK-OV-3 > 100 µM | A549 > 100 µM | EKVX > 100 µM | MCF7 > 100 µM | SN12C > 100 µM | IGROV-1 > 100 µM | CCRF-CEM > 100 µM | ACHN > 100 µM | T47D > 100 µM | PC-3 > 100 µM | NCI-H226 > 100 µM | RPMI-8226 > 100 µM | SW-620 > 100 µM | COLO 205 > 100 µM | HOP-62 > 100 µM | Hs-578T > 100 µM

O=[N+]([O-])c1ccc2[nH]nc(OCc3ccccc3Cl)c2c1
inactive: NCI-H460 35.5 µM | SK-OV-3 13.8 µM | A549 39.4 µM | HCC 2998 59.6 µM | EKVX 54.2 µM | SF-539 22.4 µM | SN12C > 100 µM | RXF 393 18.2 µM | IGROV-1 91.2 µM | CCRF-CEM > 100 µM | ACHN 19.8 µM | T47D 15 µM | PC-3 > 100 µM | NCI-H226 68.5 µM | RPMI-8226 > 100 µM | SW-620 > 10 µM | COLO 205 > 100 µM | HOP-62 37.8 µM | Hs-578T 42.3 µM
